The text below walks through data of patent publication US12679839B2, “Cyclin-dependent kinase 7 (CDK7) non-covalent inhibitors” (JANSSEN PHARMACEUTICA NV, priority 2020, dated 2026).

The target of assay [1] is T1, CDK7/Cyclin H/MAT-1 complex (Homo sapiens, UniProt P50613).
T1 construct: Human CDK7 (amino acids 1-346); His6 (N); TEV protease cleavage site (N); made in house; host or cells: baculovirus-SF9 insect cells
The assay is described as follows: Absorbance kinetic assay (20 nM CDK7/Cyclin H/MAT-1 complex). Type of assay: biochemical. The settings on record: for IC50: read-out: CDK7 (20 nM) pIC50 (converted). Here is the method:
Human CDK7 (amino acids 1-346) containing an N-terminal His6-tag followed by a tobacco etch virus (TEV) protease cleavage site, human MAT1 (amino acids 1-309) and human cyclin H (amino acids 1-323) were co-expressed in the baculovirus-SF9 insect cell expression system to generate a trimeric complex. Cell pellets were collected 72 h post-infection and were resuspended by Dounce homogenization in 20 mM Hepes-NaOH (pH 8.0), 300 mM NaCl, 10% glycerol, 2 mM dithiothreitol DTT), and 20 mM Imidazole supplemented with cOmplete™ Protease Inhibitor Cocktail (Roche) and 25 U/mL Benzonase® Nuclease HC according to the manufacturer's instructions. Cells were lysed by passing through a Microfluidics M110Y Microfluidizer 3 times at 600 kPa followed by centrifugation at 38,000×g at 4° C. for 1 hour. The supernatant was loaded onto a pre-equilibrated HisTrap HP column and eluted in 20 mM Hepes-NaOH (pH 8.0), 50 mM NaCl, 10% glycerol, 2 mM DTT, and 400 mM Imidazole. The eluate was further purified by gel filtration on a Superdex S200 16/60 column and eluted with 20 mM Hepes-NaOH (pH 7.5), 50 mM NaCl, 10% Glycerol, 2 mM DTT. Fractions containing a trimeric complex of CDK7, cyclin H, and MAT1 in a 1:1:1 ratio were pooled and concentrated to 3 mg/mL in a 10 kDa MWCO concentrator, and diluted to a final concentration of 1.6 mg/mL in 11.1 mM Hepes-NaOH (pH 8.0), 27.8 mM NaCl, 1.1 mM DTT and 50% glycerol. […]
Absorbance Kinetic Assay (20 nM CDK7/Cyclin H/MAT-1 Complex)
CDK7 complex catalyzes the ATP-dependent phosphorylation of a peptide substrate CDK7/9-tide that is derived from RNA Pol II to produce phosphorylated peptide and ADP. The kinase reaction product ADP was converted to lactate and NAD^+ in the presence of phosphoenol pyruvate (PEP), NADH and coupling enzymes lactate dehydrogenase (LDH) and pyruvate kinase (PK). CDK7 complex catalytic activity was measured by following the absorbance intensity continuously at 340 nm that corresponds with the depletion of NADH.
Absorbance at 340 nm was followed kinetically at an interval of 2 minutes for 8 hours.
The assay was carried out with 100 μl reaction volume per well in a 384-well plate that was pre-spotted nanoliter volume of compounds by LabCyte Echo 555. Compound dilution plates were made by 2-fold (could vary upon necessity) dilution in DMSO for 11 concentrations plus a DMSO control of uninhibited reaction. 2× substrate and coupling reagent mixture was added to the assay plate followed by an addition of an equal volume of 40 nM CDK7/Cyclin H/MAT-1 complex. After mixing, assay plates were spun at 2000 rpm for 3 minutes and then transferred to the plate reader for data collection.
For reversible inhibitors, the absorbance reaction progress curves were linear. The steady-state rate was derived from the slope of the linear curves. The following equation is applied to determine percent inhibition.
[formula] • νo=max rate (uninhibited rate) • νi=inhibited rate
The IC50 value is calculated by the following equation:
[formula] where νo is the rate in the absence of inhibitor, νmin is the rate at highest inhibitor concentration, and h is the Hill coefficient. Flint Assay (5 nM CDK7/Cyclin H/MAT-1 Complex)

Assay [2] relates to RNA polymerase II Serine 5 phosphorylation (Rpb1 CTD), downstream substrate of CDK7. The assay is described as follows: Imaging-based cellular RNA PolII Ser5 phosphorylation assay in A549 cells. Type of assay: cell-based, human. The settings on record: challenged with compound for 3 hours; for IC50: Homo sapiens, A549, 3 h, read-out: pRNA polII Ser5 (A549) pIC50 (converted). The text has this: Dosing curves were fitted using the following equation to obtain IC50: Y=Bottom+(Top−Bottom)/(1+10^((log IC50−X)*Hill slope)) where X=log10 of the compound concentration; top and bottom can be defined by PC and NC respectively. Imaging-Based Cellular RNA PolII Ser5 Phosphorylation Assay
To evaluate inhibition of CDK7 kinase activity, a 384-well automated imaging assay was used. This assay detects Serine 5 phosphorylation on a unique heptapeptide sequence in the C-terminal domain of Rpb1 subunit of RNA polymerase II, the downstream substrate of CDK7. This heptapeptide sequence is repeated up to 52 times in the CTD of Rpb1.
A549 adenocarcinoma human alveolar basal epithelial cells (ATCC, CCL-185), rabbit Phospho-Rpb1 CTD (Ser5) antibody (D9N51 (Cell Signaling Technology)), DMEM (Sigma), Fetal Bovine Serum (Biowest), L-glutamine (Sigma), Penicillin/Streptomycin (Life Technologies), Sodium Pyruvate (Sigma), Hepes (Sigma), poly-D-lysine coated μclear 384 black plates (Greiner), formaldehyde (PolySciences), D-PBS (Sigma), Methanol (Sigma), Alexa Fluor 488 goat anti rabbit IgG secondary antibody (Life Technologies), HCS CellMask™ Deep Red stain (Life Technologies), Hoechst 33258 (Invitrogen).
RNA Polymerase II Serine 5 phosphorylation was detected using a specific rabbit Phospho-Rpb1 CTD (Ser5) antibody. A549 adenocarcinoma human alveolar basal epithelial cells were seeded in 20 μl medium (DMEM supplemented with 1% Fetal Bovine Serum (heat inactivated 30′ 56° C.), 2 mM L-glutamine, 50 U/ml penicillin 50 μg/ml streptomycin, 1 mM sodium pyruvate and 50 mM hepes) at 1000 cells/well and cultured in poly-D-lysine coated μclear 384 black plates for 20 hours at 37° C. and 5% CO2.
After incubation cells were challenged with compound for 3 hours at 37° C. and 5% CO2. DMSO was used as high control and as low control 10 μM of LDC4297 reference compound was used. 40 nl of test compounds and controls were spotted in cell plates using Echo Liquid Handler (Echo 550, Labcyte). Incubation was followed by 20 minutes fixation with 20 μl 10% formaldehyde at room temperature. Medium/formaldehyde solution was removed, plates were washed 3 times with 30 μl D-PBS (w/o Ca^2+ and Ma^2+) and permeabilization was done by adding 20 μl ice cold methanol for 20 minutes. Cells were washed again 3 times with 30 μl D-PBS and 20 μl blocking buffer (25 ml fetal bovine serum in 500 ml D-PBS) was added for 1 hour.
After removing blocking buffer 20 μl 1/1000 primary antibody rabbit. Phospho-Rpb1 CTD (Ser5) antibody was added which binds to the phosphorylated Serine5 of the heptapeptide sequences in the CTD of Rpb1. Primary antibody was removed, and plates were washed 3 times with 30 μl D-PBS followed by addition of 20 μl 1/2000 Alexa Fluor 488 goat anti rabbit IgG secondary antibody for final detection of Phospho-Rpb1 CTD (Ser5) together with 1/5000 HCS CellMask™ Deep Red stain for membrane staining and 1/5000 Hoechst 33258 for nucleus staining. Last, plates were washed 2 times with 30 μl D-PBS and wells were filled with 40 μL D-PBS, plates were sealed (Thermowell sealing tape) and stored at 4° C. until reading. Plates were read with Opera Phenix (Perkin Elmer) with 10× air objective. Data were calculated and analyzed in Phaedra.
IC50 values were calculated using the following formula:
Average value of all HC's and all LC's are used for normalizations. % Effect=100−(sample−LC)/(HC−LC)×100% Control=(sample/HC)×100
A best-fit curve is fitted by a minimum sum of squares method to the plot of % Control vs. compound concentration. From this an IC50 value can be obtained. An estimate of the slope of the plot in terms of the Hill coefficient is also obtained.

T1 sequence (P50613 whole entry, the tested form may be a part): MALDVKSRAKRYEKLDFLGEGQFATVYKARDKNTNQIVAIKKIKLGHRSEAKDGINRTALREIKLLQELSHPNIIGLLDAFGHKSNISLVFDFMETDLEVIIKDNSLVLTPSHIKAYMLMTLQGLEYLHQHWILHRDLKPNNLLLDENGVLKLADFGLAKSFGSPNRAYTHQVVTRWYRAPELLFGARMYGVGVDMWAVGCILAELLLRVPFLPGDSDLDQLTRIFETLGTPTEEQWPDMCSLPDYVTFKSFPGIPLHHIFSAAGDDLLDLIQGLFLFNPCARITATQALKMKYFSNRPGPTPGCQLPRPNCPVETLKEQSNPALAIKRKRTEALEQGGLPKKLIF
T1 sequence (P51946 whole entry partner, the tested form may be a part): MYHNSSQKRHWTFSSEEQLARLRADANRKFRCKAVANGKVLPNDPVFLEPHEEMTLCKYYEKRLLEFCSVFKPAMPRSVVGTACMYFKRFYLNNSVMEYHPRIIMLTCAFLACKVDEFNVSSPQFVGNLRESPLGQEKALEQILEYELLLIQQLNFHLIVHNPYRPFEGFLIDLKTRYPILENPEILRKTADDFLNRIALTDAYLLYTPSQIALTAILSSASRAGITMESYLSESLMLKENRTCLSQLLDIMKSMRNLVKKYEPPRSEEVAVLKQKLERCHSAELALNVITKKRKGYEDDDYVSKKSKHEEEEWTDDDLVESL
T1 sequence (P51948 whole entry partner, the tested form may be a part): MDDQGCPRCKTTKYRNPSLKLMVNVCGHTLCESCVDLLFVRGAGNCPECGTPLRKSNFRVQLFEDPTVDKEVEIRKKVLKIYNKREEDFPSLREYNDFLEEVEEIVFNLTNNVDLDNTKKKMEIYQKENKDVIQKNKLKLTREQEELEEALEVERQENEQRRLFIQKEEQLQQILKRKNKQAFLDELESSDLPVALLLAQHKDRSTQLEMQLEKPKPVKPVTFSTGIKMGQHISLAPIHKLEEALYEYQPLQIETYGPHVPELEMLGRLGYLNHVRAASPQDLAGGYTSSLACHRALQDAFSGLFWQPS

Consider `CC[C@@H]1Cc2cnc(NC3CCOCC3)nc2CN1C(=O)[C@H]1CCN(C)C[C@@H]1c1ccccc1` (relative stereo) [Compound 185], for which the IC50 was 0.0427 µM in assay [1] and 0.724 µM in assay [2].

`Cc1cc([C@H]2CN(C)CC[C@@H]2C(=O)N2Cc3nc(NC4CCOCC4)ncc3C[C@H]2C)ccn1` (relative stereo) [Compound 103]: the IC50 in assay [1] and in assay [2] was greater than 10 µM throughout.

Regarding `C[C@H]1CN(C(=O)[C@H]2CCN(C)C[C@@H]2c2ccccc2)Cc2nc(NC3CCOCC3)ncc21` (relative stereo) [Compound 187], the IC50 in assay [1] and in assay [2] was greater than 10 µM each time.

For the compound `C[C@@H]1CN(C(=O)[C@H]2CCN(C)C[C@@H]2c2ccccc2)[C@@H](C)c2nc(NC3CCOCC3)ncc21` [Compound 180b], the “CDK7 (20 nM) pIC50” value in assay [1] turned out to be 5.65. Moreover, the IC50 in assay [2] is 3.89 µM.

As to `C[C@@H]1Cc2cnc(NCc3c(F)cccc3F)nc2CN1C(=O)[C@H]1CCN(C)C[C@@H]1c1ccccc1` [Compound 32], in assay [1], the “CDK7 (20 nM) pIC50” value worked out at 7.9. Also, the IC50 in assay [2] is 0.372 µM.

Consider `C[C@@H]1C[C@H](C(=O)N2Cc3nc(NC4CCOCC4)ncc3C[C@H]2C)[C@@H](c2ccccc2)CN1C` (relative stereo) [Compound 170a], for which the IC50 is 0.794 µM in assay [1] and greater than 10 µM in assay [2].

Turning to `C[C@H](Nc1ncc2c(n1)CN(C(=O)[C@H]1CCN(C)C[C@@H]1c1ccccc1)[C@H](C)C2)c1ccccc1` [Compound 23], the “CDK7 (20 nM) pIC50” value in assay [1] stood at 7.97. In addition, the IC50 in assay [2] is 0.302 µM.

Take `Cc1cccc([C@@H]2CN(C)CC[C@H]2C(=O)N2Cc3nc(Nc4cnn(C)c4)ncc3[C@@H]3C[C@@H]32)c1` (relative stereo) [Compound 202]: the IC50 is 2.34 µM in assay [1] and 6.92 µM in assay [2].

Turning to `C[C@@H]1Cc2cnc(NC3CCOCC3)nc2CN1C(=O)N1CCNC[C@@H]1c1ccccc1` [Compound 208], the “CDK7 (20 nM) pIC50” value in assay [1] was determined as 7.66. Moreover, the IC50 in assay [2] was 1.23 µM.

For the compound `C[C@@H]1Cc2cnc(NC3CCN(C4CC4)CC3)nc2CN1C(=O)[C@H]1CCN(C)C[C@@H]1c1ccccc1` [Compound 42], in assay [1], the “CDK7 (20 nM) pIC50” value was 7.39. Also, in assay [2], the IC50 is 1.38 µM.

Turning to `C[C@@H]1Cc2cnc(NC3CCOCC3)nc2CN1C(=O)[C@H]1CCN(C)C[C@@H]1c1ccc(F)cc1` (relative stereo) [Compound 120], the values for the IC50 in assay [1] and in assay [2] were 0.012 µM and roughly 0.0676 µM, respectively.

`C[C@@H]1Cc2cnc(NCc3ccccn3)nc2CN1C(=O)[C@H]1CCN(C)C[C@@H]1c1ccccc1` [Compound 35]: the “CDK7 (20 nM) pIC50” value in assay [1] was 7.78. For the same compound, the IC50 in assay [2] is 0.2 µM.

In the case of `C[C@@H]1Cc2cnc(NC3CCN(C(=O)C4CC4)CC3)nc2CN1C(=O)[C@H]1CCN(C)C[C@@H]1c1ccccc1` [Compound 33], the “CDK7 (20 nM) pIC50” value in assay [1] stood at 7.88. The IC50 in assay [2] was 0.162 µM.

With `C[C@@H]1Cc2cnc(NC3CCOCC3)nc2CN1C(=O)[C@@H]1CCN(C)C[C@H]1c1ccncc1` (relative stereo) [Compound 116], the values for the IC50 in assay [1] and in assay [2] were 0.0372 µM and 1.41 µM, respectively.

With `C[C@@H]1Cc2cnc(NCC3CC3)nc2CN1C(=O)[C@H]1CCN(C)C[C@@H]1c1ccccc1` [Compound 34], the “CDK7 (20 nM) pIC50” value in assay [1] is listed as 7.94. The IC50 in assay [2] was 0.275 µM.

Consider `C[C@@H]1Cc2cnc(N[C@H]3CC[C@@H](C)CC3)nc2CN1C(=O)[C@H]1CCN(C)C[C@@H]1c1ccccc1` [Compound 14], for which, in assay [1], the “CDK7 (20 nM) pIC50” value is given as 7.89. In addition, the IC50 in assay [2] is 0.479 µM.

Take `CC(C)N1CC[C@H](C(=O)N2Cc3nc(NC4CCOCC4)ncc3C[C@H]2C)[C@@H](c2ccc(Cl)c(F)c2)C1` (single isomer, unassigned) [Compound 162]: the “CDK7 (20 nM) pIC50” value in assay [1] is given as 6.95.

On to `C[C@@H]1Cc2cnc(NCC3CCOCC3)nc2CN1C(=O)[C@H]1CCN(C)C[C@@H]1c1ccccc1` [Compound 36], for which the “CDK7 (20 nM) pIC50” value in assay [1] is 7.19. In addition, the IC50 in assay [2] is 2.4 µM.

As to `C[C@H]1c2nc(NC3CCOCC3)ncc2CCN1C(=O)[C@H]1CCN(C)C[C@@H]1c1ccccc1` (relative stereo) [Compound 184], the IC50 in assay [1] is 0.0257 µM; in assay [2], 0.537 µM.

As to `CO[C@H]1CC[C@H](Nc2cc3c(cn2)C[C@H](C)N(C(=O)[C@@H]2CCN(C)C[C@H]2c2cccc(C)c2)C3)CC1` [Compound 177b], the “CDK7 (20 nM) pIC50” value in assay [1] is recorded as less than 5. Besides, the “pRNA polII Ser5 (A549) pIC50” value in assay [2] is recorded as roughly 5.23.

In the case of `Cc1ccc(CNc2ncc3c(n2)CN(C(=O)[C@H]2CCN(C)C[C@@H]2c2ccccc2)[C@H](C)C3)cn1` [Compound 27], in assay [1], the “CDK7 (20 nM) pIC50” value was determined as 7.50. Besides, the IC50 in assay [2] is 2.09 µM.

Take `C[C@@H]1Cc2cnc(NC3CC(C)(C)OC(C)(C)C3)nc2CN1C(=O)[C@H]1CCN(C)C[C@@H]1c1ccccc1` [Compound 24]: the “CDK7 (20 nM) pIC50” value in assay [1] is 7.96. The IC50 in assay [2] is 0.126 µM.

For the compound `C[C@@H]1Cc2cnc(NC3CCOCC3)nc2CN1C(=O)[C@@H]1CCN(C)C[C@H]1c1cccnc1` (relative stereo) [Compound 117], the values for the IC50 in assay [1] and in assay [2] were 0.0162 µM and greater than 10 µM, respectively.
